Values joined by “and” are separate entries in the source; they are usually repeats but may differ in a detail not shown here. Equal values may be shown once. Inconclusive results and toxic doses are left out. Cut-off read from the data, not from the text of the source: active = T/C of 150% or more; inactive = T/C below 125%.
Tested on: L1210 leukemia ip in BDF1 mice, survival T/C
Assay: NCI In Vivo Anticancer Drug Screen. Data for tumor model L1210 Leukemia (intraperitoneal) in B6D2F1 (BDF1) mice
Details: endpoint: mean survival time, higher = longer survival
Procedure, shortened: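 Transplantable tumor model; survival measured in treated vs vehicle control mice. Value = treated/control.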

[1] = dose: 100.0 mg/kg/injection, schedule: Q01DX001 (ip), vehicle: saline with Tween-80
[2] = dose: 50.0 mg/kg/injection, schedule: Q01DX009 (ip), vehicle: Klucel (hydroxypropylcellulose) (HPC)
[3] = dose: 100.0 mg/kg/injection, schedule: Q01DX009 (ip), vehicle: Klucel (hydroxypropylcellulose) (HPC)
[4] = dose: 100.0 mg/kg/injection, schedule: Q04DX003 (ip), vehicle: Klucel (hydroxypropylcellulose) (HPC)
[5] = dose: 200.0 mg/kg/injection, schedule: Q01DX009 (ip), vehicle: Klucel (hydroxypropylcellulose) (HPC)
[6] = dose: 100.0 mg/kg/injection, schedule: Q01DX009 (ip), vehicle: saline
[7] = dose: 100.0 mg/kg/injection, schedule: Q04DX003 (ip), vehicle: saline
[8] = dose: 200.0 mg/kg/injection, schedule: Q04DX003 (ip), vehicle: saline
[9] = dose: 400.0 mg/kg/injection, schedule: Q04DX003 (ip), vehicle: saline
[10] = dose: 25.0 mg/kg/injection, schedule: Q01DX009 (ip), vehicle: saline
[11] = dose: 50.0 mg/kg/injection, schedule: Q01DX009 (ip), vehicle: saline
[12] = dose: 200.0 mg/kg/injection, schedule: Q04DX003 (ip), vehicle: Klucel (hydroxypropylcellulose) (HPC)

Measured: T/C

CCCCC(C)(CCN)CCCC
inactive: dose: 4.0 mg/kg/injection, schedule: Q01DX015 (ip), vehicle: carboxymethylcellulose (CMC) 88 % of control | dose: 8.0 mg/kg/injection, schedule: Q01DX015 (ip), vehicle: carboxymethylcellulose (CMC) 96 % of control | dose: 16.0 mg/kg/injection, schedule: Q01DX015 (ip), vehicle: carboxymethylcellulose (CMC) 107 % of control | dose: 32.0 mg/kg/injection, schedule: Q01DX015 (ip), vehicle: carboxymethylcellulose (CMC) 90 % of control | dose: 48.0 mg/kg/injection, schedule: Q01DX015 (ip), vehicle: carboxymethylcellulose (CMC) 100 % of control | dose: 50.0 mg/kg/injection, schedule: Q01DX001 (ip), vehicle: carboxymethylcellulose (CMC) 111 % of control | dose: 64.0 mg/kg/injection, schedule: Q01DX015 (ip), vehicle: carboxymethylcellulose (CMC) 93 % of control | dose: 100.0 mg/kg/injection, schedule: Q01DX001 (ip), vehicle: carboxymethylcellulose (CMC) 96 % of control | dose: 100.0 mg/kg/injection, schedule: Q01DX015 (ip), vehicle: carboxymethylcellulose (CMC) 98 % of control | dose: 150.0 mg/kg/injection, schedule: Q01DX015 (ip), vehicle: carboxymethylcellulose (CMC) 100 % of control | dose: 200.0 mg/kg/injection, schedule: Q01DX001 (ip), vehicle: carboxymethylcellulose (CMC) 102 % of control | dose: 400.0 mg/kg/injection, schedule: Q01DX001 (ip), vehicle: carboxymethylcellulose (CMC) 113 % of control

NC(=O)c1ccc(NC(=O)CCC(=O)Nc2ccc(C(N)=O)cn2)nc1
inactive: dose: 0.36 mg/kg/injection, schedule: Q01DX Z (ip), vehicle: carboxymethylcellulose (CMC) 105 % of control | dose: 0.55 mg/kg/injection, schedule: Q01DX Z (ip), vehicle: carboxymethylcellulose (CMC) 102 % of control | dose: 0.83 mg/kg/injection, schedule: Q01DX Z (ip), vehicle: carboxymethylcellulose (CMC) 102 % of control | dose: 1.0 mg/kg/injection, schedule: Q01DX Z (ip), vehicle: carboxymethylcellulose (CMC) 105 % of control | dose: 1.25 mg/kg/injection, schedule: Q01DX Z (ip), vehicle: carboxymethylcellulose (CMC) 103 % of control and 114 % of control | dose: 2.0 mg/kg/injection, schedule: Q01DX Z (ip), vehicle: carboxymethylcellulose (CMC) 107 % of control | dose: 2.5 mg/kg/injection, schedule: Q01DX Z (ip), vehicle: carboxymethylcellulose (CMC) 110 % of control | dose: 3.0 mg/kg/injection, schedule: Q01DX Z (ip), vehicle: carboxymethylcellulose (CMC) 95 % of control | dose: 4.0 mg/kg/injection, schedule: Q01DX Z (ip), vehicle: carboxymethylcellulose (CMC) 104 % of control | dose: 5.0 mg/kg/injection, schedule: Q01DX Z (ip), vehicle: carboxymethylcellulose (CMC) 124 % of control and 91 % of control | dose: 10.0 mg/kg/injection, schedule: Q01DX Z (ip), vehicle: carboxymethylcellulose (CMC) 118 % of control

COC(=O)c1cccc2cn3ccc4c5ccccc5nc-4c3cc12
inactive: dose: 25.0 mg/kg/injection, schedule: Q01DX001 (ip), vehicle: saline with Tween-80 98 % of control | dose: 50.0 mg/kg/injection, schedule: Q01DX001 (ip), vehicle: saline with Tween-80 92 % of control | [1] 95 % of control and 92 % of control | dose: 400.0 mg/kg/injection, schedule: Q01DX001 (ip), vehicle: saline with Tween-80 92 % of control

CCN(CC)C(=O)C1CN2CCc3cc(OC)c(OC)cc3C2CC1OC(C)=O (configuration not stated)
inactive: dose: 6.25 mg/kg/injection, schedule: Q01DX009 (ip), vehicle: Klucel (hydroxypropylcellulose) (HPC) 94 % of control | dose: 12.5 mg/kg/injection, schedule: Q01DX009 (ip), vehicle: Klucel (hydroxypropylcellulose) (HPC) 97 % of control | dose: 25.0 mg/kg/injection, schedule: Q01DX001 (ip), vehicle: water 92 % of control | dose: 25.0 mg/kg/injection, schedule: Q01DX009 (ip), vehicle: Klucel (hydroxypropylcellulose) (HPC) 94 % of control | dose: 25.0 mg/kg/injection, schedule: Q04DX003 (ip), vehicle: Klucel (hydroxypropylcellulose) (HPC) 103 % of control | dose: 50.0 mg/kg/injection, schedule: Q01DX001 (ip), vehicle: water 111 % of control | [2] 103 % of control | dose: 50.0 mg/kg/injection, schedule: Q04DX003 (ip), vehicle: Klucel (hydroxypropylcellulose) (HPC) 100 % of control | dose: 100.0 mg/kg/injection, schedule: Q01DX001 (ip), vehicle: water 97 % of control | [3] 103 % of control | [4] 97 % of control | [5] 115 % of control

NC(=S)NNC(=S)S
inactive: [3] 98 % of control | [5] 98 % of control | dose: 400.0 mg/kg/injection, schedule: Q01DX009 (ip), vehicle: Klucel (hydroxypropylcellulose) (HPC) 109 % of control

CCCC(N)C(=O)O (configuration not stated)
inactive: dose: 100.0 mg/kg/injection, schedule: Q01DX001 (ip), vehicle: Klucel (hydroxypropylcellulose) (HPC) 106 % of control | dose: 200.0 mg/kg/injection, schedule: Q01DX001 (ip), vehicle: Klucel (hydroxypropylcellulose) (HPC) 103 % of control | dose: 400.0 mg/kg/injection, schedule: Q01DX001 (ip), vehicle: Klucel (hydroxypropylcellulose) (HPC) 95 % of control

CCOc1ccc(NC(=S)NC(=O)c2cccc3ccccc23)cc1
inactive: [6] 96 % of control | [7] 92 % of control | dose: 200.0 mg/kg/injection, schedule: Q01DX009 (ip), vehicle: saline 96 % of control | [8] 100 % of control | dose: 400.0 mg/kg/injection, schedule: Q01DX009 (ip), vehicle: saline 95 % of control | [9] 92 % of control

C[P+]1(C)CC2OC2C1 (configuration not stated)
inactive: dose: 12.5 mg/kg/injection, schedule: Q01DX009 (ip), vehicle: saline 91 % of control | [10] 102 % of control | [11] 94 % of control | [6] 91 % of control

COC(=O)c1ccccc1NC(=O)Nc1ccccc1Cl
inactive: [2] 88 % of control | [3] 88 % of control | [4] 89 % of control | [12] 92 % of control

C/C=C1\C(=O)O[C@@]23C=C[C@H]4C(C(=O)OC)=CO[C@@H](O[C@H]12)[C@H]43
inactive: dose: 5.0 mg/kg/injection, schedule: Q01DX001 (ip), vehicle: saline 103 % of control | dose: 10.0 mg/kg/injection, schedule: Q01DX001 (ip), vehicle: saline 103 % of control | dose: 20.0 mg/kg/injection, schedule: Q01DX001 (ip), vehicle: saline 106 % of control | dose: 40.0 mg/kg/injection, schedule: Q01DX001 (ip), vehicle: saline 103 % of control

CC12CCC(C1)C(C)(C)C2NCCCN1C(=O)c2ccc3c4c(ccc(c24)C1=O)C(=O)N(CCCNC1C2(C)CCC(C2)C1(C)C)C3=O (configuration not stated)
inactive: [10] 102 % of control | dose: 25.0 mg/kg/injection, schedule: Q04DX003 (ip), vehicle: saline 98 % of control | [11] 117 % of control | dose: 50.0 mg/kg/injection, schedule: Q04DX003 (ip), vehicle: saline 94 % of control | [7] 96 % of control and 90 % of control

CCOC(=O)c1cc2c3n(c1=O)CCCC3C(c1ccccn1)OC2=O (configuration not stated)
inactive: dose: 100.0 mg/kg/injection, schedule: Q01DX001 (ip), vehicle: saline 92 % of control | dose: 200.0 mg/kg/injection, schedule: Q01DX001 (ip), vehicle: saline 98 % of control | dose: 400.0 mg/kg/injection, schedule: Q01DX001 (ip), vehicle: saline 103 % of control

CCCCCCCCCCCCCCCC=C(C)C
inactive: [1] 101 % of control | dose: 200.0 mg/kg/injection, schedule: Q01DX001 (ip), vehicle: saline with Tween-80 103 % of control

CCCCCCCCCC1=NN(c2cccc(S(=O)(=O)N(C)c3ccccc3)c2)C(=O)C1
inactive: [7] 94 % of control | [8] 94 % of control | [9] 91 % of control

COc1cccc(Nc2ccc(C(=O)O)cc2[N+](=O)[O-])c1
inactive: dose: 100.0 mg/kg/injection, schedule: Q04DX003 (ip), vehicle: water 98 % of control | dose: 200.0 mg/kg/injection, schedule: Q04DX003 (ip), vehicle: water 103 % of control | dose: 400.0 mg/kg/injection, schedule: Q04DX003 (ip), vehicle: water 98 % of control

Cc1ccc2nc(Nc3ccc(Cl)cc3)cc(C(O)C3CCCCN3)c2c1 (configuration not stated)
inactive: [4] 96 % of control | [12] 92 % of control | dose: 400.0 mg/kg/injection, schedule: Q04DX003 (ip), vehicle: Klucel (hydroxypropylcellulose) (HPC) 97 % of control

Reference: PubChem BioAssay AID248 (DTP/NCI, 2004)
